{"source": "patent US11039618B2", "about": "“Metam salts and polysulfide soil treatment” (Tessenderlo Kerley, Inc, priority 2016, dated 2021)", "key": {"Verticillium": {"system": "Verticillium", "test": "Jar test 2016: Verticillium microsclerotia colonies in treated soil, dry soil plating on NP-10", "format": "cell-based, Verticillium dahliae", "details": "2016 test; microsclerotia colonies per gram of soil post-treatment; soil 20% water content; 4 replicates", "description": "These investigations were performed under laboratory conditions in an initial jar test. We also investigated the pathogen control efficacy of LSS treatments, at 30 gal/acre (90 pounds/acre or 101 Kg/ha of calcium polysulfide) and at 90 gal/acre (276 pounds/acre or 310 Kg/ha of calcium polysulfide), and combined Metam/LSS treatments using Sectagon® brand metam at 20 gal/acre Metam (84 pounds/acre or 94 Kg/ha of metam sodium) with 40 gal/acre LSS (122 pounds/acre or 138 Kg/ha of calcium polysulfide); and at 30 gal/acre Metam (126 pounds/acre or […] of metam sodium) with 20 gal/acre LSS (60 pounds/acre or 67 kg/ha of calcium polysulfide). […] This may be due to lower water saturation in the 2016 tests compared to the saturation in 2015 tests, which was near 100%.\nEach treatment listed in Table 1 was replicated 4 times. Verticillium levels in soil were assessed by dry incubation on semi selective media (NP-10) method. Soil collected from a Romaine lettuce field in Salinas, Calif. was used for the investigation. […]\nExperimental Setup: Seven treatments were installed in 4 replicates each. […] The equivalent of gal/acre was calculated on the assumption that on acre of soil has an average weight of 3,625,895 lbs. […] Afterwards, soil was split between the two laboratories and were assessed according to the method described.\nVerticillium levels in soil were assessed by dry incubation on semi selective media (NP-10). […]\nThe quantity of Verticillium in soil was assessed by dry soil plating on NP-10 semi-selective medium. […] After that, remaining soil was gently washed off the plates and the number of Verticillium microsclerotia colonies were counted on each plate under a microscope. The number of microsclerotia colonies is used as a standard method to quantify Verticillium in soil and was extrapolated for 1 g soil.\nResults were analyzed in a one-way ANOVA (P=0.05) and a Fisher LSD Post-Hoc test. […]\nVerticillium assessments were performed parallel in two separate laboratories. […] The quantity of Verticillium in soil was assessed by dry soil plating on NP-10 semi-selective medium. […]"}, "[1]": {"system": "artificially infested V. dahliae soil", "test": "Greenhouse eggplant bioassay (plant height) in treated, artificially infested V. dahliae soil", "format": "in vivo", "details": "preliminary; for eggplant height Jul. 27, 2017: soil treated Jun. 27, 2017, eggplant transplanted July 13, rates gal/acre on 12 inch soil depth, letters after value = statistical grouping, untreated 118; for eggplant height Aug. 4, 2017 / eggplant height Aug. 10, 2017 / eggplant height Aug. 17, 2017: soil treated Jun. 27, 2017, letters = statistical grouping; for eggplant height Aug. 4, 2017: untreated 124; for eggplant height Aug. 10, 2017: untreated 134", "description": "In these tests, greenhouse and microplot trials were done to further define the LSS efficacy as stand-alone treatment as well as in combination with Sectagon®. A large number of soil samples were treated using the rates below, expressed as gallons equivalent per acre of (LSS), a 3.07 pounds Calcium Polysulfide per gallon Liquid Lime Sulfur Solution, and Sectagon®, a 4.25 pound per gallon sodium methyldithiocarbamate (metam) solution. Each treatment was performed on six samples to provide statistically valid data. As always, though the treatment is defined in terms of gallons per acre of two products, the testing is with a mixture.\nTo minimize sample variability that was apparent in certain previous tests, these tests were a greenhouse study, using artificially infested V. dahliae soil. A soil derived from a Romaine lettuce field in Salinas, Calif. (collected September 2015) was confirmed (January 2017) to be highly infested with V. dahliae. Romaine lettuce were grown in the V. dahliae infested soil until microsclerotia built up in the leaves. Infested leaves were harvested, dried, crumbled, and mixed with autoclaved sand. Samples of the mixture were tested for V. dahliae. The mixture was used for the greenhouse study and for the production of pathogen bags for the microplot study.\nArtificially infested V. dahliae soil were treated according to the above list. The greenhouse/eggplant study utilize a sterile sand+10% potting mix soil. The inoculated soil was pre-irrigated to ca. 70% field capacity for 14 days, and was then soil placed in various containers, each of which was then treated with appropriate LSS/Metam mixture in a certain volume of water. The soil was thoroughly mixed/agitated, and left sealed for 24 hours to simulate a water seal or tarp. The container was then unsealed 24 hours after application and allowed to sit for 14 days and then mixed and apportioned into 4″ pots for growing eggplant as the bioassay.\nTo simulate a situation closer to field conditions, a field based microplot study was also established for a few of the above tests, using eggplant. The greenhouse/eggplant study utilized a sterile sand+10% potting mix soil; the inoculated soil was pre-irrigated to ca. 70% field capacity for 14 days; soil was placed in a bucket, treated with appropriate LSS/Metam mixture in correct volume of water, thoroughly mixed/agitated, and left sealed for 24 hours to simulate a water seal or tarp. The bucket was unsealed at 24 hours after application and allowed to sit for 14 days and then mixed and apportioned into 4″ pots for growing eggplant as the bioassay. Seven days after treatment, one soil sample per replicate was taken. V. dahliae control efficacy was assessed according to the methods below, but only on selected treatments due to time pressures. At 14 days after treatment, eggplants were grown in the remaining soil to assess treatment effects on vigor and growth. […] Microplots were located at the USDA Research Field at Spence Road, Salinas, Calif. Treatments were selected based on the results of the previous greenhouse study. Trial site was pre-irrigated for 7 days before placing the Verticillium, V. dahliae, sample bags in the various treatments. Sprinkler irrigation was used to establish 60-80% soil moisture. Four V. dahliae samples per replicate were artificially introduced at 4 and 8 inches depth. Treatments were applied with micro emitter and drip across the microplot. The treatment using a 2 hour drip irrigation period was anticipated to provide penetration to 12 inch depth. After treatment, microplots remained untarped. After 5-7 days V. dahliae samples were recovered.\nAll LSS and Sectagon® treatments were made, mixing the treatment well with the soil and covering to prevent outgassing on Jun. 27, 2017. On June 28 the lids were removed lids. […]"}}}
{"smiles": "CNC(=S)[S-].[Na+]", "note": "[Comp. Example 3, sodium methyldithiocarbamate]", "values": [{"measurement": "Verticillium quantity (ms/g) Lab A", "setting": "Verticillium", "value": "0.5 ± 0.5", "unit": "ms/g"}, {"measurement": "Verticillium quantity (ms/g) Lab B", "setting": "Verticillium", "value": "12 ± 3", "unit": "ms/g"}]}
{"smiles": "CNC(=S)[S-].[Na+]", "note": "[Sample 8, sodium methyldithiocarbamate]", "values": [{"measurement": "eggplant height Jul. 27, 2017", "setting": "[1]", "value": 140, "unit": "abcde mm"}, {"measurement": "eggplant height Aug. 4, 2017", "setting": "[1]", "value": 145, "unit": "cdefg mm"}, {"measurement": "eggplant height Aug. 10, 2017", "setting": "[1]", "value": 159, "unit": "bcdef mm"}, {"measurement": "eggplant height Aug. 17, 2017", "setting": "[1]; untreated 138", "value": 163, "unit": "bcde mm"}]}
{"smiles": "CNC(=S)[S-].[Na+]", "note": "[Sample 9, sodium methyldithiocarbamate]", "values": [{"measurement": "eggplant height Jul. 27, 2017", "setting": "[1]", "value": 138, "unit": "bcdef mm"}, {"measurement": "eggplant height Aug. 4, 2017", "setting": "[1]", "value": 150, "unit": "cdefg mm"}, {"measurement": "eggplant height Aug. 10, 2017", "setting": "[1]", "value": 155, "unit": "cdefg mm"}, {"measurement": "eggplant height Aug. 17, 2017", "setting": "[1]; untreated 138", "value": 160, "unit": "bcdef mm"}]}
{"smiles": "CNC(=S)[S-].[Na+]", "note": "[Sample 10, sodium methyldithiocarbamate]", "values": [{"measurement": "eggplant height Jul. 27, 2017", "setting": "[1]", "value": 150, "unit": "abc mm"}, {"measurement": "eggplant height Aug. 4, 2017", "setting": "[1]", "value": 160, "unit": "bcde mm"}, {"measurement": "eggplant height Aug. 10, 2017", "setting": "[1]", "value": 169, "unit": "abcde mm"}, {"measurement": "eggplant height Aug. 17, 2017", "setting": "[1]; untreated 138", "value": 171, "unit": "acbd mm"}, {"measurement": "eggplant height Aug. 17, 2017", "setting": "[1]; untreated 138, listed as comparative example 10", "value": 171, "unit": "mm"}]}
